Test results from ChEMBL document CHEMBL5729397, “Targeted drug rescue with novel compositions, combinations, and methods thereof” (2022).

Target: Cytochrome P450 2D6 (Homo sapiens, UniProt P10635)
Test: Inhibition of Dextromethorphan Metabolism: Dextromethorphan O-demethylase activity was determined in human liver microsomes. […] The incubation mixtures contained pooled human liver microsomes (final concentrations: 0.25 mg/ml), dextromethorphan, and a NADPH-generating system (1.3 mM NADP+, 3.3 mM glucose 6-phosphate, 3.3 mM MgCl2, and 0.4 U/ml glucose-6-phosphate dehydrogenase). […] All incubations were performed in triplicate, and mean values were used for analysis.

Chain of Cytochrome P450 2D6 (P10635 whole entry): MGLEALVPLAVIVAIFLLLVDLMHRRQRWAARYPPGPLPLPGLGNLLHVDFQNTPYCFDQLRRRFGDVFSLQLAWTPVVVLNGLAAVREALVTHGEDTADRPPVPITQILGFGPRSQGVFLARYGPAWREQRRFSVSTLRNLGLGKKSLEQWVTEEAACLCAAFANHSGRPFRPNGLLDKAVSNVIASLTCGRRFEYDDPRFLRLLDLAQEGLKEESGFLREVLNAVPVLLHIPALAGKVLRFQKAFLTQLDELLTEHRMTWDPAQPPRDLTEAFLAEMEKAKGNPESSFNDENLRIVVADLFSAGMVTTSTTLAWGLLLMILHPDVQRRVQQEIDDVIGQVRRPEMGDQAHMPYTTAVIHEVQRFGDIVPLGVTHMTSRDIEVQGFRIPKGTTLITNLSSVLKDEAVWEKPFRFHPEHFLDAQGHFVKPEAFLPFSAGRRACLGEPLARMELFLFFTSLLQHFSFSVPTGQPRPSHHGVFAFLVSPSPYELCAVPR

COc1ccc(CCc2ccccc2OCC(CN(C)C)OC(=O)CCC(=O)O)cc1 (stereo unspecified)
IC50: 1.2 µM
